In brackets after ≈: the same amount, converted by molar mass.
Key:
Assay in all cases: microbe, parasite or virus in culture
Type in all cases: cell-based, Mycobacterium tuberculosis
[1] = test system: strain 242: resistant to isoniazide (WHO QC bacterium); details: for MIC: Mycobacterium tuberculosis, read-out: drug-resistance bacteria MIC, 242 (H mono-resistance); for MIC value, times as that of PA-824, isoniazide resistance 242: strain 242, relative to PA-824
[2] = test system: strain 246: resistant to streptomycin (WHO QC bacterium); details: for MIC: Mycobacterium tuberculosis, read-out: drug-resistance bacteria MIC, 246 (S mono-resistance); for MIC value, times as that of PA-824, streptomycin resistance 246: strain 246, relative to PA-824
[3] = test system: strain 261: resistant to rifampicin (WHO QC bacterium); details: for MIC: Mycobacterium tuberculosis, read-out: drug-resistance bacteria MIC, 261 (R mono-resistance); for MIC value, times as that of PA-824, rifampicin resistance 261: strain 261, relative to PA-824

For `O=C(CN1CCC(Oc2ccc(OC(F)(F)F)cc2)CC1)N[C@@H]1COc2nc([N+](=O)[O-])cn2C1` [Compound 1, (S)-N-(6,7-dihydro-2-nitro-5H-imidazo [2,1-b][1,3]oxazin-6-yl)-2-(4-(4-(trifluoromethoxy)phenoxy)piperid-1-yl)acetamide], the MIC [1] was 0.5 µg/mL (≈ 1.03 µM), the “MIC value, times as that of PA-824, isoniazide resistance 242” value [1] was 2 times and the MIC [2] was < 0.0312 µg/mL. The “MIC value, times as that of PA-824, streptomycin resistance 246” value [2] was 16 times, the MIC [3] was < 0.0312 µg/mL and the “MIC value, times as that of PA-824, rifampicin resistance 261” value [3] was 16 times.
In the case of `O=C(CCN1CCC(Oc2ccc(OC(F)(F)F)cc2)CC1)N[C@@H]1COc2nc([N+](=O)[O-])cn2C1` [Compound 22, (S)-N-(6,7-dihydro-2-nitro-5H-imidazo [2,1-b][1,3]oxazin-6-yl)-3-(4-(4-(trifluoromethoxy)phenoxy)piperid-1-yl)propanamide], the MIC [1] is reported as 0.5 µg/mL (≈ 1 µM), the “MIC value, times as that of PA-824, isoniazide resistance 242” value [1] is reported as 2 times and the MIC [2] is reported as 0.0625 µg/mL (≈ 0.125 µM). For the same molecule, the “MIC value, times as that of PA-824, streptomycin resistance 246” value [2] was 8 times, the MIC [3] was < 0.0312 µg/mL and the “MIC value, times as that of PA-824, rifampicin resistance 261” value [3] was 16 times.
`O=[N+]([O-])c1cn2c(n1)OC[C@@H](OCc1ccc(OC(F)(F)F)cc1)C2` [PA-824, reference compound] was tested, and the MIC [1] was 1 µg/mL (≈ 2.78 µM), the MIC [2] was 0.5 µg/mL (≈ 1.39 µM) and the MIC [3] was 0.5 µg/mL (≈ 1.39 µM).
